Molecular target: Stimulator of interferon genes protein (Homo sapiens, UniProt Q86WV6)
Assay: WT STING Binding Assay
Method: Upon proximity of the two dyes, the excitation of the donor by the flash lamp on the PHERAstar FSX plate reader triggers a Fluorescence Resonance Energy Transfer (FRET) towards the acceptor, which in turn fluoresces at 665 nm. To assess the ability of the synthetic small molecule STING ligands to bind to human STING, a competitive assay format was applied. A 10-point titration of each of the synthetic ligands in 5 uL were transferred into a 384 well plate, followed by 20 uL of assay buffer containing the 6×His-tagged human STING protein and labeled 2′3′cGAMP ligand and incubated for three hours at room temperature. The raw values obtained from the PHERAstar were used to calculate the reported IC50 values (the signal is inversely proportional to the binding of the synthetic ligand) through curve fitting in Genedata. The percent inhibition was calculated based upon the maximal amount of binding by synthetic compound versus the maximum binding of unlabeled 2′3′ cGAMP which was used as a control in each assay.

Chain of Stimulator of interferon genes protein (Q86WV6 whole entry): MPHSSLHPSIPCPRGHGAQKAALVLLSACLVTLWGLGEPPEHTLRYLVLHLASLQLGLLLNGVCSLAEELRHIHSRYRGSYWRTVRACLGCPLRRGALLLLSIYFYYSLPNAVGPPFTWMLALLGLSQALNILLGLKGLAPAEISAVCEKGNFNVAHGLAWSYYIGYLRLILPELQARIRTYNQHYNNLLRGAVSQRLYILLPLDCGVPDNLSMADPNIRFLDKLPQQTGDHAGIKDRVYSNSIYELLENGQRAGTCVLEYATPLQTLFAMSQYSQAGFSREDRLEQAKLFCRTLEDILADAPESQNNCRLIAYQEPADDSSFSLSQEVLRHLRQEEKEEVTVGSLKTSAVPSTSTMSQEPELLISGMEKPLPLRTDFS

Row | Structure (SMILES) | IC50
1 | O=C(Nc1cc(CCOc2cc(NC(=O)c3ccc(-c4cn[nH]c4)nn3)c(C(=O)O)cc2F)c(F)cc1C(=O)O)c1ccc(-c2cn[nH]c2)nn1 [US20230357253, Compound 4] | < 10 nM
2 | COc1cc(C(=O)O)c(NC(=O)c2ccc(-n3ccnc3)nn2)cc1OCCc1cc(C(=O)O)c(NC(=O)c2ccc3nnnn3n2)cc1Cl [US20230357253, Compound 6] | < 10 nM
3 | O=C(Nc1cc(OCCCOc2cc(C(=O)O)c(NC(=O)c3ccc(-n4ccnc4)nn3)cc2F)c(F)cc1C(=O)O)c1ccc(-n2ccnc2)nn1 [US20230357253, Compound 10] | < 10 nM
4 | O=C(Nc1cc(OCCCCOc2cc(NC(=O)c3ccc(-n4ccnc4)nn3)c(C(=O)O)cc2F)ccc1C(=O)O)c1ccc(-n2ccnc2)nn1 [US20230357253, Compound 19] | < 10 nM
5 | O=C(Nc1cc(OCCCCOc2ccc(NC(=O)c3ccc4nnnn4n3)c(C(=O)O)c2)ccc1C(=O)O)c1ccc2nnnn2n1 [US20230357253, Compound 27] | > 1000 nM
6 | O=C(Nc1cc(OCCCOc2ccc(C(=O)O)c(NC(=O)c3ccc4nnnn4n3)c2)ccc1C(=O)O)c1ccc2nnnn2n1 [US20230357253, Compound 28] | > 1000 nM
7 | O=C(Nc1cc(CCc2ccc(C(=O)O)c(NC(=O)c3ccc4nnnn4n3)c2)ccc1C(=O)O)c1ccc2nnnn2n1 [US20230357253, Compound 29] | > 1000 nM
8 | O=C(Nc1cc(OCCCCOc2ccc(C(=O)O)c(NC(=O)c3ccc4nnnn4n3)c2)ccc1C(=O)O)c1ccc2nnnn2n1 [US20230357253, Compound 32] | > 1000 nM
9 | O=C(Nc1cc(OCCCOc2cc(C(=O)O)c(NC(=O)c3ccc4nnnn4n3)cc2F)c(F)cc1C(=O)O)c1ccc2nnnn2n1 [US20230357253, Compound 33] | > 1000 nM
10 | O=C(Nc1cc(OCCCCOc2ccc(C(=O)O)c(NC(=O)c3ccc(-n4ccnc4)nn3)c2)ccc1C(=O)O)c1ccc(O)nn1 [US20230357253, Compound 35] | > 1000 nM
11 | COC(=O)c1ccc(OCCCCOc2ccc(C(=O)O)c(NC(=O)c3ccc(-n4ccnc4)nn3)c2)cc1NC(=O)c1ccc2nnnn2n1 [US20230357253, Compound 37] | > 1000 nM
12 | O=C(Nc1c(C(=O)O)cc(F)c(OCCCCOc2c(F)cc(C(=O)O)c(NC(=O)c3ccc(-n4ccnc4)nn3)c2F)c1F)c1ccc(-n2ccnc2)nn1 [US20230357253, Compound 38] | > 1000 nM
13 | COc1cc(C(=O)O)c(NC(=O)c2ccc(-n3ccnc3)nn2)cc1CCCc1ccc(C(=O)O)c(NC(=O)c2ccc(-n3ccnc3)nn2)c1 [US20230357253, Compound 56] | < 10 nM
14 | COc1cc(C(=O)O)c(NC(=O)c2ccc(-n3ccnc3)nn2)cc1CCCc1cc(NC(=O)c2ccc(-n3ccnc3)nn2)c(C(=O)O)cc1F [US20230357253, Compound 59] | < 10 nM
15 | O=C(Nc1cc(CCCc2cc(NC(=O)c3ccc(-n4ccnc4)nn3)c(C(=O)O)cc2Cl)ccc1C(=O)O)c1ccc(-n2ccnc2)nn1 [US20230357253, Compound 66] | < 10 nM
16 | O=C(Nc1cc(CCCc2cc(NC(=O)c3ccc(-n4ccnc4)nn3)c(C(=O)O)cc2F)ccc1C(=O)O)c1ccc(-n2ccnc2)nn1 [US20230357253, Compound 68] | < 10 nM
17 | O=C(Nc1cc(F)c(CCCc2cc(NC(=O)c3ccc4nnnn4n3)c(C(=O)O)cc2F)cc1C(=O)O)c1ccc(-n2ccnc2)nn1 [US20230357253, Compound 94] | < 10 nM
18 | O=C(Nc1cc(CCCc2cc(C(=O)O)c(NC(=O)c3ccc4nnnn4n3)cc2F)c(N2CCOCC2)cc1C(=O)O)c1ccc(-n2ccnc2)nn1 [US20230357253, Compound 108] | > 1000 nM
19 | O=C(Nc1cc(CCCOc2cc(NC(=O)c3ccc4nnnn4n3)c(C(=O)O)cc2F)c(F)cc1C(=O)O)c1ccc(-n2ccnc2)nn1 [US20230357253, Compound 126] | < 10 nM
20 | COc1cc(C(=O)O)c(NC(=O)c2ccc(-n3ccnc3)nn2)cc1OCCc1cc(C(=O)O)c(NC(=O)c2ccc(-n3ccnc3)nn2)cc1C#N [US20230357253, Compound 130] | < 10 nM
21 | O=C(Nc1cc(CSCc2cc(NC(=O)c3ccc(-n4ccnc4)nn3)c(C(=O)O)cc2F)c(F)cc1C(=O)O)c1ccc(-n2ccnc2)nn1 [US20230357253, Compound 132] | < 10 nM
22 | O=C(O)Cc1cc(F)c(CCOc2cc(NC(=O)c3ccc(-n4ccnc4)nn3)c(C(=O)O)cc2F)cc1NC(=O)c1ccc(-n2ccnc2)nn1 [US20230357253, Compound 133] | > 1000 nM
23 | O=C(Nc1cc(CCOc2cc(C(=O)O)c(NC(=O)c3ccc(-n4ccnc4)nn3)cc2F)c(F)cc1C(=O)O)c1ccc(-n2ccnc2)nn1 [US20230357253, Compound 141] | < 10 nM
24 | O=C(Nc1cc(CCOc2cc(C(=O)O)c(NC(=O)c3ccc4nnnn4n3)cc2F)c(F)cc1C(=O)O)c1ccc(-n2ccnc2)nn1 [US20230357253, Compound 145] | 10 to 100 nM
25 | O=C(Nc1cc(CCCc2cc(NC(=O)c3ccc(-n4ccnc4)nn3)c(C(=O)O)cc2F)c(F)cc1C(=O)O)c1ccc(-c2cn[nH]c2)nn1 [US20230357253, Compound 159] | < 10 nM

Next, values leading:

Row | IC50 | Structure (SMILES)
26 | < 10 nM | O=C(Nc1cc(CCCc2cc(NC(=O)c3ccc(-n4ccnc4)nn3)c(C(=O)O)cc2F)c(F)cc1C(=O)O)c1ccc(-n2ccnc2)nn1 [US20230357253, Compound 3]
27 | < 10 nM | CC(CCOc1cc(NC(=O)c2ccc(-n3ccnc3)nn2)c(C(=O)O)cc1F)Oc1cc(NC(=O)c2ccc(-n3ccnc3)nn2)c(C(=O)O)cc1F (centres undefined) [US20230357253, Compound 5]
28 | > 1000 nM | O=C(Nc1cc(CCCc2ccc(NC(=O)c3ccc4nnnn4n3)c(C(=O)O)c2)ccc1C(=O)O)c1ccc2nnnn2n1 [US20230357253, Compound 13]
29 | > 1000 nM | O=C(Nc1cc(CCCc2ccc(C(=O)O)c(NC(=O)c3ccc4nnnn4n3)c2)ccc1C(=O)O)c1ccc2nnnn2n1 [US20230357253, Compound 14]
30 | > 1000 nM | COc1cc(C(=O)O)c(NC(=O)c2ccc(-n3ccnc3)nn2)cc1OCCCCOc1cc(NC(=O)c2ccc(-n3ccnc3)nn2)c(C(=O)O)cc1OC [US20230357253, Compound 21]
31 | > 1000 nM | O=C(Nc1cc(OCCCOc2ccc(NC(=O)c3ccc4nnnn4n3)c(C(=O)O)c2)ccc1C(=O)O)c1ccc2nnnn2n1 [US20230357253, Compound 25]
32 | > 1000 nM | O=C(Nc1cc(OCCOc2cc(C(=O)O)c(NC(=O)c3ccc4nnnn4n3)cc2F)ccc1C(=O)O)c1ccc2nnnn2n1 [US20230357253, Compound 26]
33 | > 1000 nM | O=C(Nc1cc(OCCCCCOc2ccc(C(=O)O)c(NC(=O)c3ccc4nnnn4n3)c2)ccc1C(=O)O)c1ccc2nnnn2n1 [US20230357253, Compound 30]
34 | > 1000 nM | O=C(Nc1cc(OCCOc2ccc(NC(=O)c3ccc4nnnn4n3)c(C(=O)O)c2)ccc1C(=O)O)c1ccc2nnnn2n1 [US20230357253, Compound 31]
35 | > 1000 nM | O=C(Nc1c(C(=O)O)cc(F)c(OCCCCOc2c(F)cc(C(=O)O)c(NC(=O)c3ccc(-n4ccnc4)nn3)c2F)c1F)c1ccc(O)nn1 [US20230357253, Compound 39]
36 | > 1000 nM | O=C(Nc1cc(OCCCCOc2cnc(C(=O)O)c(NC(=O)c3ccc(-n4ccnc4)nn3)c2)cnc1C(=O)O)c1ccc(-n2ccnc2)nn1 [US20230357253, Compound 45]
37 | > 1000 nM | O=C(Nc1cc(CCCc2ccc(C(=O)O)c(NC(=O)c3ccc4nnnn4n3)c2)ccc1C(=O)O)c1ccc(-n2ccnc2)nn1 [US20230357253, Compound 63]
38 | < 10 nM | O=C(Nc1cc(CCCc2cc(NC(=O)c3ccc4nnnn4n3)c(C(=O)O)cc2F)c(F)cc1C(=O)O)c1ccc(-n2ccnc2)nn1 [US20230357253, Compound 67]
39 | < 10 nM | O=C(Nc1cc(CCCc2cc(C(=O)O)c(NC(=O)c3ccc(-n4ccnc4)nn3)cc2F)c(F)cc1C(=O)O)c1ccc(-n2ccnc2)nn1 [US20230357253, Compound 70]
40 | < 10 nM | O=C(Nc1cc(CCCc2cc(C(=O)O)c(NC(=O)c3ccc(-n4ccnc4)nn3)cc2F)ccc1C(=O)O)c1ccc(-n2ccnc2)nn1 [US20230357253, Compound 78]
41 | < 10 nM | O=C(Nc1cc(CCCc2cc(C(=O)O)c(NC(=O)c3ccc4nnnn4n3)cc2F)c(F)cc1C(=O)O)c1ccc(-n2ccnc2)nn1 [US20230357253, Compound 90]
42 | < 10 nM | O=C(Nc1cc(CCCOc2cc(NC(=O)c3ccc(-n4ccnc4)nn3)c(C(=O)O)cc2F)c(F)cc1C(=O)O)c1ccc(-n2ccnc2)nn1 [US20230357253, Compound 125]
43 | < 10 nM | O=C(Nc1cc(CCCCc2cc(C(=O)O)c(NC(=O)c3ccc(-n4ccnc4)nn3)cc2F)c(F)cc1C(=O)O)c1ccc(-n2ccnc2)nn1 [US20230357253, Compound 127]
44 | < 10 nM | COc1nc(C(=O)O)c(NC(=O)c2ccc(-n3ccnc3)nn2)cc1CCCc1cc(NC(=O)c2ccc(-n3ccnc3)nn2)c(C(=O)O)cc1F [US20230357253, Compound 134]
45 | > 1000 nM | O=C(Nc1ccc(OCOc2ccc(NC(=O)c3ccc(-n4ccnc4)nn3)c(C(=O)O)c2)cc1C(=O)O)c1ccc(-n2ccnc2)nn1 [US20230357253, Compound 138]
46 | < 10 nM | O=C(Nc1cc(OCCc2cc(C(=O)O)c(NC(=O)c3ccc(-n4ccnc4)nn3)cc2F)c(F)cc1C(=O)O)c1ccc(-n2ccnc2)nn1 [US20230357253, Compound 144]
47 | > 1000 nM | O=C(Nc1cc(CCCc2ccc(-c3nn[nH]n3)c(NC(=O)c3ccc(-n4ccnc4)nn3)c2)c(F)cc1C(=O)O)c1ccc(-n2ccnc2)nn1 [US20230357253, Compound 148]
48 | < 10 nM | COc1cc(C(=O)O)c(NC(=O)c2ccc(-n3ccnc3)nn2)cc1OCCc1cc(C(=O)O)c(NC(=O)c2ccc(-n3ccnc3)nn2)cc1Cl [US20230357253, Compound 156]
49 | < 10 nM | N#Cc1cc(C(=O)O)c(NC(=O)c2ccc(-n3ccnc3)nn2)cc1CCOc1cc(NC(=O)c2ccc(-n3ccnc3)nn2)c(C(=O)O)cc1F [US20230357253, Compound 162]
